Molecular target: T1, monomeric apoA-I (Homo sapiens, UniProt P02647)
T1 construct: gene APOA1; mature apoA-I residues 3-243 from E. coli BL21(DE3), His tag removed by formic acid at Asp2-Pro3; soluble, lipid-free, monomeric, pH 7
Experiment: WaterLOGSY NMR
Format: binding
Conditions: 36 μM apoA-I, phosphate buffer pH 7, no heparin

T1 sequence (P02647 27-267): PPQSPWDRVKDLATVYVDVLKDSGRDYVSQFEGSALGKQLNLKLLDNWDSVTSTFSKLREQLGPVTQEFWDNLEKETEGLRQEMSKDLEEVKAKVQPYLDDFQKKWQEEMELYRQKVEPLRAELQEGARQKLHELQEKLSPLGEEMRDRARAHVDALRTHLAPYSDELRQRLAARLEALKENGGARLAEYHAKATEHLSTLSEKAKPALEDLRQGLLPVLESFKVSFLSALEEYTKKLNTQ

O=C(O[C@@H]1Cc2c(O)cc(O)cc2O[C@@H]1c1cc(O)c(O)c(O)c1)c1cc(O)c(O)c(O)c1 [compound 5, EGCG]
WaterLOGSY NMR: peaks from EGCG broaden and take the opposite sign to the TSP peak

From paper PMC6102129, “Epigallocatechin-3-gallate remodels apolipoprotein A-I amyloid fibrils into soluble oligomers in the presence of heparin” (The Journal of Biological Chemistry, 2018)
